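Cells were grown in 96-well plates and exposed to each compound for 48 hours at five concentrations; endpoints were interpolated linearly between bracketing concentrations, or set to the highest concentration if not reached. GI50 = concentration required for 50% inhibition of growth.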 Active and inactive are the calls of the source. Cut-off read from the data, not from the text of the source: active = GI50 up to about 1.1 µM and inactive = higher.
Legend:
Assay in all cases: NCI anticancer screen, dose series, 48 h
NCI-H23 = test system: NCI-H23
SN12C = test system: SN12C
HCC 2998 = test system: HCC 2998
A549 = test system: A549
SF-268 = test system: SF-268
OVCAR-5 = test system: OVCAR-5
Malme-3M = test system: Malme-3M
UACC-257 = test system: UACC-257
HOP-92 = test system: HOP-92
LOX IMVI = test system: LOX IMVI
CCRF-CEM = test system: CCRF-CEM
OVCAR-4 = test system: OVCAR-4
SK-MEL-28 = test system: SK-MEL-28
KM12 = test system: KM12
SF-295 = test system: SF-295
HCT-15 = test system: HCT-15
SK-MEL-5 = test system: SK-MEL-5
UACC-62 = test system: UACC-62
MOLT-4 = test system: MOLT-4
NCI-H522 = test system: NCI-H522

COc1ccc2cc1Oc1ccc(cc1)CC1c3c(cc(OC)c4c3Oc3cc5c(cc3O4)CCNC5C2)CCN1C (stereo not given)
GI50 (NCI-H23): 2.06 µM (inactive) | GI50 (SN12C): 1.91 µM (inactive) | GI50 (HCC 2998): 1.2 µM (inactive) | GI50 (A549): 2.2 µM (inactive) | GI50 (SF-268): 1.95 µM (inactive) | GI50 (OVCAR-5): 3.6 µM (inactive) | GI50 (Malme-3M): 2.09 µM (inactive) | GI50 (UACC-257): 1.67 µM (inactive) | GI50 (HOP-92): 2.45 µM (inactive) | GI50 (LOX IMVI): 1.69 µM (inactive) | GI50 (CCRF-CEM): 1.24 µM (inactive) | GI50 (OVCAR-4): 2.33 µM (inactive) | GI50 (SK-MEL-28): 1.88 µM (inactive) | GI50 (KM12): 1.85 µM (inactive) | GI50 (SF-295): 1.91 µM (inactive) | GI50 (HCT-15): 1.77 µM | GI50 (SK-MEL-5): 2.06 µM (inactive) | GI50 (UACC-62): 1.82 µM (inactive) | GI50 (MOLT-4): 1.46 µM (inactive) | GI50 (NCI-H522): 1.7 µM (inactive)

O=C(NC(Cc1ccc(Br)cc1)C(=O)O)c1ccc(I)cc1 (stereo not given)
GI50 (NCI-H23): > 100 µM (inactive) | GI50 (SN12C): > 100 µM (inactive) | GI50 (HCC 2998): > 47.4 µM (inactive) | GI50 (A549): > 100 µM (inactive) | GI50 (SF-268): > 100 µM (inactive) | GI50 (OVCAR-5): > 100 µM (inactive) | GI50 (Malme-3M): 83.4 µM (inactive) | GI50 (UACC-257): > 100 µM (inactive) | GI50 (HOP-92): 65.3 µM (inactive) | GI50 (LOX IMVI): > 100 µM (inactive) | GI50 (CCRF-CEM): > 72.9 µM (inactive) | GI50 (OVCAR-4): 75.3 µM (inactive) | GI50 (SK-MEL-28): > 100 µM (inactive) | GI50 (KM12): > 100 µM (inactive) | GI50 (SF-295): > 100 µM (inactive) | GI50 (HCT-15): > 100 µM | GI50 (SK-MEL-5): > 100 µM (inactive) | GI50 (UACC-62): 71.9 µM (inactive) | GI50 (MOLT-4): > 69.5 µM (inactive) | GI50 (NCI-H522): > 82.6 µM (inactive)

COc1cc(C2S/C(=C/c3ccccc3)C(=O)N2c2ccc(NC(C)=O)cc2)cc(OC)c1OC (stereo not given)
GI50 (NCI-H23): 20 µM (inactive) | GI50 (SN12C): 15.8 µM (inactive) | GI50 (HCC 2998): 19.7 µM (inactive) | GI50 (A549): 23.8 µM (inactive) | GI50 (SF-268): 17.9 µM (inactive) | GI50 (OVCAR-5): 28 µM (inactive) | GI50 (Malme-3M): 22 µM (inactive) | GI50 (UACC-257): 37.2 µM (inactive) | GI50 (HOP-92): 20.2 µM (inactive) | GI50 (LOX IMVI): 18.2 µM (inactive) | GI50 (CCRF-CEM): 0.319 µM (active) | GI50 (OVCAR-4): 19.3 µM (inactive) | GI50 (SK-MEL-28): 30.8 µM (inactive) | GI50 (KM12): 14.1 µM (inactive) | GI50 (SF-295): 36.6 µM (inactive) | GI50 (HCT-15): 15 µM | GI50 (SK-MEL-5): 13.1 µM (inactive) | GI50 (UACC-62): 20 µM (inactive) | GI50 (MOLT-4): 4.61 µM (inactive) | GI50 (NCI-H522): 10.1 µM (inactive)
